From US20020106347A1, “Cytokines and their use in treatment and/or prophylaxis of breast cancer” (priority 1995, published 2002)
“Also recorded” adds a separate entry of the source.

Experiments:
Format in all cases: cell-based, human
[1] = system: primary normal breast cells; test: Growth of primary normal breast cells in suspension culture; details: serum free breast media, 7 days
Method: FIG. 6 is a graphical representation of primary normal breast cells in suspension culture. 10^4 primary normal breast cells were cultured in 500 μl serum free breast media containing the indicated concentration of each of the growth factors (OSM and […]). After 7 days culture viable cells were counted using a hemacytometer. Cell numbers reported here are the results of 1 experiment, performed in triplicate.
Sterile normal breast tissue was obtained from reduction mammoplasty surgery. […] After 18 hours the mixture was centrifuged at 600 RCF/5 min, the supernatant discarded and the remaining cell pellet washed twice in RPMI-1640 supplemented with 10% (v/v) (v/v) BCS. […] Single cells adhered to the culture flasks and from these islands of cells epithelial cells grew. The media was subsequently removed and replaced with serum-free breast media. Partial trypsinisation removed any contaminating fibroblasts and the cells remaining were 95-100% epithelial. Cells were subsequently grown for approximately 30 days in the serum free breast media.

[2] = system: ER in MCF-7 cells; test: ER expression by antibody staining on chamber slides; details: MCF-7, 6 days
Method: (§1) MCF-7 cells were grown on chamber slides for 6 days in RPMI/10% (v/v) BCS with the following growth factors, prior to being stained with an antibody specific for ER. […] Cells stained brown indicate ER positivity.
as §1

[3] = system: BT-549; test: Cell morphology after exposure to OSM; details: BT-549 exposed to OSM
Excerpt: (§2) The action of IL-6, LIF, OSM CNTF and IL-11 was examined on 4 breast cancer cell lines grown in monolayer culture. Striking changes in the morphology of cells were observed. FIG. 15 compares morphology of untreated cells with cells exposed to OSM. […] This was associated with the appearance of decreased intercellular adhesion or cellular contraction. These changes were quite marked by day 14.

[4] = system: T-47D cells; test: Cell morphology after exposure to OSM; details: T-47D cultured with OSM
Excerpt: as §2

[5] = system: MCF-7 cells; test: Cell cycle analysis by flow cytometry (DNA content); details: MCF-7, serum-free medium
Method: FIG. 9 is a graphical representation showing the effect of OSM on cell cycle. MCF-7 cells treated with OSM while growing in serum-free medium were harvested by treatment with trypsin and stained for DNA content analysis by flow cytometry. Cell cycle distributions were calculated by computer fitting of the resultant histograms. […] FIG. 10(b) represents data from 2 experiments (performed in triplicate) where the number of cells in S phase are represented as a percentage of the corresponding untreated control value.
Cell cycle distributions were calculated by computer fitting of the resultant histograms. Results represent the combined data from 3 experiments (performed in triplicate) where the number of cells in S phase are represented as a percentage of the corresponding untreated control value.
Cell cycle analysis was performed in serum-free medium (Sigma). Analysis was performed 2-4 days after cells were washed and re-cultured in serum-free medium. Growth factors were added to the medium as indicated. At the times shown thereafter, cells were harvested with 0.05% (w/v) trpsin-0.02% (w/v) EDTA. The cells were resuspended in serum-free tissue culture medium and after cell counting using a hemacytometer, stained for later DNA analysis by the addition of 0.25% prothidium iodide in the presence of 0.2% (v/v) Triton X-100. DNA histograms were obtained by using a FACScan flow cytometer (Becton Dickinson Immunocytochemistry Systems) and the cell cycle phase distribution was estimated by using the manufacturer's DNA analysis software (Cellfit). Each histogram contained 10,000 events.

[6] = system: MCF-7 cells; test: Northern analysis of mRNA expression after OSM; details: OSM 10 ng/ml
Method: (§3) FIG. 12 is a photographic representation showing effect of OSM on the expression of Transforming Growth Factor α (TGFα), Epidemal Growth Factor Receptor (EGFR), Prolactin Receptor (PRLR), Estrogen Receptor (ER) and LIF mRNA. Cells growing in the presence of 10% (v/v) BCS were treated with OSM (10 ng/ml) and at the indicated time points duplicate 150 cm^2 flasks were harvested and mRNA extracted for Northern analysis. Results for control cells (C) are also shown. The same filter has been probed successively with a ^32P-labelled cDNA corresponding to each mRNA species. mRNA loading was evaluated by reprobing the filter with a fragment complementary to GAPDH. mRNA species of the following sizes were obtained: TGFα, 4.8 kb; PRLR, 10.5 and 8.6 kb; EGFR, 10.5 and 5.8 kb; ER, 6.5 and 3.8 kb and LIF, approx. 4.8 kb.
Cells havested from duplicate flasks were pooled and poly A+ mRNA extracted by an oligo-dT cellulose procedure (Boehringer Mannheim). Northern analysis was performed using 5 μg RNA per lane. Membranes (Hybond-C extra-Amersham) were hybridised (42° C. overnight) with probes labelled with α-^32P dCTP (bresatec). The membranes were washed at a stringency of 0.2× SSC (30 mM NaCl, 3 mM sodium citrate, pH 7.0)-0.1% (w/v) sodium dodecyl sulfate at 65° C. and exposed to Kodak X-Omat film at −70° C. mRNA loading was estimated by hybridising membranes with a 1.3 kb cDNA complementary to GAPDH.
as §3, with “Cells” for “FIG. 12 is a photographic representation showing effect of OSM on the expression of Transforming Growth Factor α (TGFα), Epidemal Growth Factor Receptor (EGFR), Prolactin Receptor (PRLR), Estrogen Receptor (ER) and LIF mRNA. Cells”

[7] = from 2 hours, maintained for 48 hours

oncostatin M [OSM]
effect on proliferation (in words) [1]: profoundly inhibited the proliferation | cells staining very weakly for ER [2]: 50% | cell morphology (in words) [3]: Transformation to a fibroblastic phenotype | cell morphology (in words) [4]: more rounded in appearance | effect on S phase fraction (in words) [5]: marked decrease in the S phase cells; also recorded: decreased | effect on percentage of cells in G1 phase (in words) [5]: concomitant increase in the percentage of cells in G1 phase | number of cells in S phase as percentage of control cells ([5]; by 24 hour): 50% | percentage of cells in S phase following treatment ([5]; decreases from approximately 15% over a 72 hour time period): ~8% | abundance of TGFα transcript (in words) [6]: equivalent to control cells | level of LIF transcript (in words) [6]: upregulates | elevation of EGFR mRNA abundance ([6]; between 4-12 hours): at least 5 fold | level of expression of Estrogen Receptor (ER) mRNA (in words) [6, 7]: down regulate | level of expression of Prolactin Receptor (PRLR) mRNA (in words) [6, 7]: down regulate
